Measured values from PMC2721768 (Purinergic Signalling, 2008).
Marks after values point to notes of the source that are not given here.

Assays:
[1] = system: ectonucleotidase activity in rat vas deferens tissue; settings: at 100 μM; cited from earlier work
[2] = biological target: T1, rat NTPDase1 (Rattus norvegicus, UniProt P97687); experiment: Inhibition of rat NTPDase1; settings: for percent inhibition at 1 mM NTPDase1 / inhibition of rat NTPDase1 (in words): rat NTPDase1; for percent inhibition at 1 mM NTPDase1: 1 mM compound, ATP 400 μM; for inhibition at 1000 µM: read-out: percent inhibition at 1 mM NTPDase1
T1 sequence (P97687 1-511): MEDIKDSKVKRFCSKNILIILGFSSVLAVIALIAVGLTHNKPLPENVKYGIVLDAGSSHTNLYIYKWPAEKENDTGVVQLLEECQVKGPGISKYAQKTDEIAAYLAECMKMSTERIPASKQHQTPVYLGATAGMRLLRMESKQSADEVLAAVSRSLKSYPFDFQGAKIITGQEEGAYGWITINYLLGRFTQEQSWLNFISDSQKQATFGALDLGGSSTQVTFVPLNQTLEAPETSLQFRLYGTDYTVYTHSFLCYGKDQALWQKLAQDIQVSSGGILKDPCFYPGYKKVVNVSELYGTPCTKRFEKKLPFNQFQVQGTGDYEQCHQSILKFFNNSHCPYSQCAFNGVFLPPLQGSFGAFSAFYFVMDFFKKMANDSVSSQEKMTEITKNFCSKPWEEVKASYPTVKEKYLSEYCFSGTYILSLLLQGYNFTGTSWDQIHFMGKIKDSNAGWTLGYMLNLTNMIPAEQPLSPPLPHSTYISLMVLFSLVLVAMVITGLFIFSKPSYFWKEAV

[3] = system: P2Y2; settings: read-out: IC50 P2Y2 antagonist; cited from earlier work
[4] = biological target: T2, rat NTPDase3 (Rattus norvegicus, UniProt A6I415); experiment: Inhibition of rat NTPDase3; settings: for inhibition at 1000 µM: read-out: percent inhibition at 1 mM NTPDase3
T2 sequence (A6I415 1-529): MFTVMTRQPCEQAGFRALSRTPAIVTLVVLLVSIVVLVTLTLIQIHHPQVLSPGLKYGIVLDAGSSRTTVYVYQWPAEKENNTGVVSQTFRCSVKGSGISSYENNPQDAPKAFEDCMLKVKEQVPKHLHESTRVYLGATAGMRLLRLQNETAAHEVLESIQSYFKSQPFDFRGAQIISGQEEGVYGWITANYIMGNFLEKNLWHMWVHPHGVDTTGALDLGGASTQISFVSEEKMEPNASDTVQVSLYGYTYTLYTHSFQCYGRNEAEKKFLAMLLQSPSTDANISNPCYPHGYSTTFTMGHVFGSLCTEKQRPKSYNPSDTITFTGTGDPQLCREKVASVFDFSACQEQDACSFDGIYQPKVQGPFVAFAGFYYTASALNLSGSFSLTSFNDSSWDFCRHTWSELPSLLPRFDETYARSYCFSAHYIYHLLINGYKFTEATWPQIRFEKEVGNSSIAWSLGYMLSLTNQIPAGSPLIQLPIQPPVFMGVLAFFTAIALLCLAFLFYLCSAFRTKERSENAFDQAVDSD

[5] = Solubility and stability under the test conditions; type: physicochemical; settings: 3 mM in HEPES assay buffer (diluted from 10 mM aqueous solution)
[6] = system: NTPDases1, 2, and 3; settings: rat NTPDase1, 2 and 3
[7] = biological target: T3, rat NTPDase2 (Rattus norvegicus, UniProt O35795); experiment: Inhibition of rat NTPDase2; settings: for inhibition at 1000 µM: read-out: percent inhibition at 1 mM NTPDase2
T3 sequence (O35795 1-495): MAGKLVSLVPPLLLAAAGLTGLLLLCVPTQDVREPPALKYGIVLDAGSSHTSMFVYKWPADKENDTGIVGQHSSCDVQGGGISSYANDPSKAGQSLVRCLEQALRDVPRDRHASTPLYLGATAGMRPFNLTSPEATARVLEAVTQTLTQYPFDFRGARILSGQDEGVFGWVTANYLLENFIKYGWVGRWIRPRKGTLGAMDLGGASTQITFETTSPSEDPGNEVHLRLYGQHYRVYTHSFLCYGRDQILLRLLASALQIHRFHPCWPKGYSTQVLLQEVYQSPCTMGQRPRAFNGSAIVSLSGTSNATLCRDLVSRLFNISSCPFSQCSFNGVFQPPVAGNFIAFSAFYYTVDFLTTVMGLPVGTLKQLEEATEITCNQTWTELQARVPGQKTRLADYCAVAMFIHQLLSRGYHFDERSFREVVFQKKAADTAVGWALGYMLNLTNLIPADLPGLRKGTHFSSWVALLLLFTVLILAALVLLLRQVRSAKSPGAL

[8] = rat NTPDase3, inhibitor 10, 20, and 30 μM

Structure (SMILES) | inhibition at 1000 µM [2] | inhibition at 1000 µM [7] | inhibition at 1000 µM [4] | other results
Nc1c(S(=O)(=O)O)cc(Nc2ccccc2)c2c1C(=O)c1ccccc1C2=O [Compound 11] | – | – | – | inhibition of ATP degradation in rat vas deferens tissue [1]: inactive
Cc1ccccc1Nc1cc(S(=O)(=O)O)c(N)c2c1C(=O)c1ccccc1C2=O [Compound 12] | – | – | – | percent inhibition at 1 mM NTPDase1 [2]: (25%)
Cc1cccc(Nc2cc(S(=O)(=O)O)c(N)c3c2C(=O)c2ccccc2C3=O)c1C [Compound 14] | – | – | – | percent inhibition at 1 mM NTPDase1 [2]: (67%)^b
COc1ccccc1Nc1cc(S(=O)(=O)O)c(N)c2c1C(=O)c1ccccc1C2=O [Compound 16] | – | – | – | IC50 [3]: ~9 µM; inhibition of rat NTPDase1 (in words) [2]: weak; percent inhibition at 1 mM NTPDase1 [2]: (57%)
CCOc1ccccc1Nc1cc(S(=O)(=O)O)c(N)c2c1C(=O)c1ccccc1C2=O [Compound 17] | – | – | – | percent inhibition at 1 mM NTPDase1 [2]: (17%)
Nc1c(S(=O)(=O)O)cc(Nc2ccc(Cl)cc2)c2c1C(=O)c1ccccc1C2=O [Compound 18, 1-Amino-2-sulfo-4-p-chloroanilinoanthraquinone] | – | – | – | Ki [4]: 16.4 ± 1.6 µM; effect on Vmax value of NTPDase3 [4, 8]: not affected; mechanism of inhibition (NTPDase3 kinetics, Lineweaver-Burk plot) [4, 8]: competitive; effect on Km value of NTPDase3 ([4]; rat NTPDase3, with increasing concentration of inhibitor (10, 20, 30 μM)): increased; time until precipitation (in words) [5]: short period of time
CC(=O)Nc1ccc(Nc2cc(S(=O)(=O)O)c(N)c3c2C(=O)c2ccccc2C3=O)cc1 [Compound 19] | – | – | – | IC50 [3]: 6 to 12 µM; percent inhibition at 1 mM NTPDase1 [2]: (15%); NTPDase inhibitory activity (in words) [6]: nearly inactive
Nc1c(S(=O)(=O)[O-])cc(Nc2cccc3ccccc23)c2c1C(=O)c1ccccc1C2=O.[Na+] [Compound 20, Sodium 1-amino-4-(1-naphthylamino)-9,10-dioxo-9,10-dihydroanthracene 2-sulfonate] | 0% | 0% | – | inhibition of rat NTPDase1 (in words) [2]: not inhibitory; inhibition of rat NTPDase2 (in words) ([7]; rat NTPDase2): not inhibitory
Nc1c(S(=O)(=O)O)cc(Nc2ccc3ccccc3c2)c2c1C(=O)c1ccccc1C2=O [Compound 21, Sodium 1-amino-4-(2-naphthylamino)-9,10-dioxo-9,10-dihydroanthracene 2-sulfonate] | – | – | – | Ki [4]: 2.22 ± 1.03 µM
COc1ccc(CCNc2cc(S(=O)(=O)O)c(N)c3c2C(=O)c2ccccc2C3=O)cc1OC [Compound 22, Sodium 1-amino-4-(3,4-dimethoxyphenethylamino)-9,10-dioxo-9,10-dihydroanthracene 2-sulfonate] | – | – | – | Ki [4]: 23.4 ± 0.4 µM; Ki [2]: 173 ± 6 µM; Ki [7]: 54.1 ± 6.8 µM
Cc1cc(Nc2ccccc2)c2c(c1N)C(=O)c1ccccc1C2=O [Compound 23, 1-Amino-2-methyl-4-phenylaminoanthraquinone] | 0% | 0% | 0% | –
Cc1cccc(Nc2cc(C)c(N)c3c2C(=O)c2ccccc2C3=O)c1 [Compound 24, 1-Amino-2-methyl-4-(3-methylphenylamino)anthraquinone] | 0% | 0% | 0% | –
Cc1ccc(Nc2cc(C)c(N)c3c2C(=O)c2ccccc2C3=O)cc1 [Compound 25, 1-Amino-2-methyl-4-(4-methylphenylamino)anthraquinone] | 0% | 0% | 0% | –
Cc1cc(Nc2cccc3ccccc23)c2c(c1N)C(=O)c1ccccc1C2=O [Compound 26, 1-Amino-2-methyl-4-(1-naphthylamino)anthraquinone] | 0% | 0% | 0% | –
COS(=O)(=O)c1cc(Br)c2c(c1N)C(=O)c1ccccc1C2=O [Compound 27, 1-Amino-4-bromoanthraquinone-2-sulfonic acid methyl ester] | 0% | 0% | 0% | –
Nc1c(S(=O)(=O)Oc2ccccc2[N+](=O)[O-])cc(Br)c2c1C(=O)c1ccccc1C2=O [Compound 28, 1-Amino-4-bromoanthraquinone-2-sulfonic acid 2-nitrophenyl ester] | 0% | 0% | 0% | –
Nc1c(S(=O)(=O)Oc2cccc([N+](=O)[O-])c2)cc(Br)c2c1C(=O)c1ccccc1C2=O [Compound 29, 1-Amino-4-bromoanthraquinone-2-sulfonic acid 3-nitrophenyl ester] | 0% | 0% | 0% | –
Nc1c(S(=O)(=O)Oc2ccc([N+](=O)[O-])cc2)cc(Br)c2c1C(=O)c1ccccc1C2=O [Compound 30, 1-Amino-4-bromoanthraquinone-2-sulfonic acid 4-nitrophenyl ester] | 0% | 0% | 0% | –
Nc1c(S(=O)(=O)Nc2ccccc2)cc(Br)c2c1C(=O)c1ccccc1C2=O [Compound 31, 1-Amino-4-bromoanthraquinone-2-sulfonic acid phenyl amide] | 0% | 0% | 0% | –
Nc1c(S(=O)(=O)NCc2ccccc2)cc(Br)c2c1C(=O)c1ccccc1C2=O [Compound 32, 1-Amino-4-bromoanthraquinone-2-sulfonic acid benzylamide] | 0% | 0% | 0% | –
Nc1c(S(=O)(=O)NCCc2ccccc2)cc(Br)c2c1C(=O)c1ccccc1C2=O [Compound 33, 1-Amino-4-bromoanthraquinone-2-sulfonic acid phenethylamide] | 0% | 0% | 0% | –
